“And” between values parts separate entries of the source, which are not always exact repeats. Equal entries are not always repeated.
Test system: MCF7 complex spheroid growth, % test/control
Assay: Anticancer human tumor MCF7 cell line growth inhibition [Asc];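 note: spheroids exposed to compounds for 7 days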;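 for viability, T/C: 100% = DMSO vehicle control wells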
Conditions: for viability, T/C: stronger effect = lower value
Method in brief: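 Stromal components (HUVEC and hMSC) are co-assembled with the cancer cells into multicellular spheroids. Drugs are then added singly or paired, at concentrations falling by half-log increments from a clinically achievable maximum, capped at 10 microM without known Cmax.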

`NC1CCC(NC2CC2c2ccccc2)CC1` (centres undefined) + CNC(C)C(=O)NC1CN(S(=O)(=O)c2cccc(S(=O)(=O)N3CCC4CCC(C(=O)NC(c5ccccc5)c5ccccc5)N4C(=O)C(NC(=O)C(C)NC)C3)c2)CCC2CCC(C(=O)NC(c3ccccc3)c3ccccc3)N2C1=O was tested, and the IC50 (curve of first compound, second compound 0.00316 µM) was less than 0.316 nM, the IC50 (curve of first compound, second compound 0.01 µM) was less than 0.316 nM and the IC50 (curve of first compound, second compound 0.0316 µM) was less than 0.316 nM. For the same compound, the IC50 (curve of first compound, second compound 0.1 µM) was less than 0.316 nM, the IC50 (curve of first compound, second compound 0.316 µM) was less than 0.316 nM and the IC50 (curve of first compound, second compound 1 µM) was less than 0.316 nM. For the same compound, the viability, T/C (second compound 0.00316 µM, first compound 0.000316 µM) was 23.3%, the viability, T/C (second compound 0.00316 µM, first compound 0.001 µM) was 18.5% and the viability, T/C (second compound 0.00316 µM, first compound 0.00316 µM) was 16.4%. The viability, T/C (second compound 0.00316 µM, first compound 0.01 µM) was 21.6%, the viability, T/C (second compound 0.00316 µM, first compound 0.0316 µM) was 18.2% and the viability, T/C (second compound 0.00316 µM, first compound 0.1 µM) was 22.6%. For the same compound, the viability, T/C (second compound 0.01 µM, first compound 0.000316 µM) was 11.9%, the viability, T/C (second compound 0.01 µM, first compound 0.001 µM) was 12.3% and the viability, T/C (second compound 0.01 µM, first compound 0.00316 µM) was 12.2%. It also gave a viability, T/C (second compound 0.01 µM, first compound 0.01 µM) of 10.7%, a viability, T/C (second compound 0.01 µM, first compound 0.0316 µM) of 10.4% and a viability, T/C (second compound 0.01 µM, first compound 0.1 µM) of 10.8%. For the same compound, the viability, T/C (second compound 0.0316 µM, first compound 0.000316 µM) was 11.2%, the viability, T/C (second compound 0.0316 µM, first compound 0.001 µM) was 9.92% and the viability, T/C (second compound 0.0316 µM, first compound 0.00316 µM) was 10.8%. The viability, T/C (second compound 0.0316 µM, first compound 0.01 µM) was 10.2%, the viability, T/C (second compound 0.0316 µM, first compound 0.0316 µM) was 10.9% and the viability, T/C (second compound 0.0316 µM, first compound 0.1 µM) was 11.9%. It also gave a viability, T/C (second compound 0.1 µM, first compound 0.000316 µM) of 13.9%, a viability, T/C (second compound 0.1 µM, first compound 0.001 µM) of 12.6% and a viability, T/C (second compound 0.1 µM, first compound 0.00316 µM) of 12.5%. The viability, T/C (second compound 0.1 µM, first compound 0.01 µM) was 10.5%, the viability, T/C (second compound 0.1 µM, first compound 0.0316 µM) was 13.6% and the viability, T/C (second compound 0.1 µM, first compound 0.1 µM) was 13.8%. For the same compound, the viability, T/C (second compound 0.316 µM, first compound 0.000316 µM) was 11.4%, the viability, T/C (second compound 0.316 µM, first compound 0.001 µM) was 16.8% and the viability, T/C (second compound 0.316 µM, first compound 0.00316 µM) was 16.9%. The viability, T/C (second compound 0.316 µM, first compound 0.01 µM) was 15.8%, the viability, T/C (second compound 0.316 µM, first compound 0.0316 µM) was 12% and the viability, T/C (second compound 0.316 µM, first compound 0.1 µM) was 14.2%. It also gave a viability, T/C (second compound 1 µM, first compound 0.000316 µM) of 13.1%, a viability, T/C (second compound 1 µM, first compound 0.001 µM) of 12.3% and a viability, T/C (second compound 1 µM, first compound 0.00316 µM) of 13.9%. It also gave a viability, T/C (second compound 1 µM, first compound 0.01 µM) of 15.8%, a viability, T/C (second compound 1 µM, first compound 0.0316 µM) of 15% and a viability, T/C (second compound 1 µM, first compound 0.1 µM) of 10.2%.

For `Cc1nc(N2CCC3(CC2)COC(C)C3N)c(CO)nc1Sc1ccnc(N)c1Cl` (centres undefined), the viability, T/C (compound 0.00949 µM) was 89.4% and 87.6% and 92.8%, the viability, T/C (compound 0.03 µM) was 89.1% and 113% and 107% and the viability, T/C (compound 0.0949 µM) was 86.5% and 90.9% and 95.4%. For the same compound, the viability, T/C (compound 0.3 µM) was 82.5% and 93.3% and 94.7%, the viability, T/C (compound 0.949 µM) was 16.5% and 27% and 73% and the viability, T/C (compound 3 µM) was 11.1% and 14.7% and 16.4%. The IC50 (curve of compound) was 529 nM and 636 nM and 1520 nM.

Reference: PubChem BioAssay AID1963445 (Molecular Pharmacology Branch, DTP, NCI, 2024)
